Measured values taken from PubChem BioAssay (NCI).
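These data come from cells grown in 96-well plates and exposed to compound for 48 hours at five concentrations. TGI marks complete inhibition of growth.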

Experiments:
Experiment in all cases: inhibition of tumour cell growth, NCI panel, 48 h
SF-295 CNS = tested on: SF-295 CNS
MOLT-4 leukemia = tested on: MOLT-4 leukemia
ACHN renal = tested on: ACHN renal
SNB-19 CNS = tested on: SNB-19 CNS
HCC-2998 colon = tested on: HCC-2998 colon
HCT-116 colon = tested on: HCT-116 colon
OVCAR-8 ovarian = tested on: OVCAR-8 ovarian
COLO 205 colon = tested on: COLO 205 colon
OVCAR-3 ovarian = tested on: OVCAR-3 ovarian
RXF 393 renal = tested on: RXF 393 renal
UO-31 renal = tested on: UO-31 renal
SK-MEL-5 melanoma = tested on: SK-MEL-5 melanoma
HOP-92 NSCLC = tested on: HOP-92 NSCLC
NCI/ADR-RES ovarian = tested on: NCI/ADR-RES ovarian
UACC-257 melanoma = tested on: UACC-257 melanoma
NCI-H460 lung = tested on: NCI-H460 lung
BT-549 breast = tested on: BT-549 breast
A549 NSCLC = tested on: A549 NSCLC
DU-145 prostate = tested on: DU-145 prostate
IGROV1 ovarian = tested on: IGROV1 ovarian
CCRF-CEM leukemia = tested on: CCRF-CEM leukemia
TK-10 renal = tested on: TK-10 renal
HS 578T breast = tested on: HS 578T breast
SK-MEL-28 melanoma = tested on: SK-MEL-28 melanoma
SW-620 colon = tested on: SW-620 colon
HOP-62 NSCLC = tested on: HOP-62 NSCLC
OVCAR-5 ovarian = tested on: OVCAR-5 ovarian
MCF7 breast = tested on: MCF7 breast
786-0 renal = tested on: 786-0 renal
NCI-H522 lung = tested on: NCI-H522 lung
MDA-MB-435 = tested on: MDA-MB-435
NCI-H226 lung = tested on: NCI-H226 lung
SF-539 CNS = tested on: SF-539 CNS
HCT-15 colon = tested on: HCT-15 colon
HL-60(TB) leukemia = tested on: HL-60(TB) leukemia
RPMI-8226 leukemia = tested on: RPMI-8226 leukemia
NCI-H23 lung = tested on: NCI-H23 lung
MALME-3M melanoma = tested on: MALME-3M melanoma
MDA-MB-231 breast = tested on: MDA-MB-231 breast
SNB-75 CNS = tested on: SNB-75 CNS
HT29 colon = tested on: HT29 colon
U251 CNS = tested on: U251 CNS
A498 renal = tested on: A498 renal
CAKI-1 renal = tested on: CAKI-1 renal
MDA-N = tested on: MDA-N
EKVX NSCLC = tested on: EKVX NSCLC
K-562 leukemia = tested on: K-562 leukemia
LOX IMVI melanoma = tested on: LOX IMVI melanoma
SN12C renal = tested on: SN12C renal
SF-268 CNS = tested on: SF-268 CNS
OVCAR-4 ovarian = tested on: OVCAR-4 ovarian
KM12 colon = tested on: KM12 colon
PC-3 prostate = tested on: PC-3 prostate
SK-OV-3 ovarian = tested on: SK-OV-3 ovarian
M14 melanoma = tested on: M14 melanoma
SK-MEL-2 melanoma = tested on: SK-MEL-2 melanoma
SR leukemia = tested on: SR leukemia
UACC-62 melanoma = tested on: UACC-62 melanoma

For `Nc1nc(Cl)c(/C=N\O)c(NCC2(CO)CC(=O)C2)n1`, the TGI (SF-295 CNS) was > 100 µM, the TGI (MOLT-4 leukemia) was > 100 µM and the TGI (ACHN renal) was > 100 µM. For the same molecule, the TGI (SNB-19 CNS) was > 100 µM, the TGI (HCC-2998 colon) was > 100 µM and the TGI (HCT-116 colon) was > 100 µM. The TGI (OVCAR-8 ovarian) was > 100 µM, the TGI (COLO 205 colon) was > 100 µM and the TGI (OVCAR-3 ovarian) was > 100 µM. The TGI (RXF 393 renal) was > 100 µM, the TGI (UO-31 renal) was > 100 µM and the TGI (SK-MEL-5 melanoma) was > 100 µM. For the same molecule, the TGI (HOP-92 NSCLC) was > 100 µM, the TGI (NCI/ADR-RES ovarian) was > 100 µM and the TGI (UACC-257 melanoma) was > 100 µM. For the same molecule, the TGI (NCI-H460 lung) was > 100 µM, the TGI (BT-549 breast) was > 100 µM and the TGI (A549 NSCLC) was > 100 µM. For the same molecule, the TGI (DU-145 prostate) was > 100 µM, the TGI (IGROV1 ovarian) was 70.4 µM and the TGI (CCRF-CEM leukemia) was > 100 µM. The TGI (TK-10 renal) was > 100 µM, the TGI (HS 578T breast) was 55.6 µM and the TGI (SK-MEL-28 melanoma) was > 100 µM. For the same molecule, the TGI (SW-620 colon) was > 100 µM, the TGI (HOP-62 NSCLC) was > 100 µM and the TGI (OVCAR-5 ovarian) was > 100 µM. The TGI (MCF7 breast) was > 100 µM, the TGI (786-0 renal) was > 100 µM and the TGI (NCI-H522 lung) was > 100 µM. The TGI (MDA-MB-435) was > 100 µM, the TGI (NCI-H226 lung) was > 100 µM and the TGI (SF-539 CNS) was > 100 µM. For the same molecule, the TGI (HCT-15 colon) was > 100 µM, the TGI (HL-60(TB) leukemia) was > 100 µM and the TGI (RPMI-8226 leukemia) was > 100 µM. For the same molecule, the TGI (NCI-H23 lung) was > 100 µM, the TGI (MALME-3M melanoma) was > 100 µM and the TGI (MDA-MB-231 breast) was > 100 µM. The TGI (SNB-75 CNS) was > 100 µM, the TGI (HT29 colon) was > 100 µM and the TGI (U251 CNS) was > 100 µM. The TGI (A498 renal) was > 100 µM, the TGI (CAKI-1 renal) was > 100 µM and the TGI (MDA-N) was > 100 µM. The TGI (EKVX NSCLC) was > 100 µM, the TGI (K-562 leukemia) was > 100 µM and the TGI (LOX IMVI melanoma) was > 100 µM. The TGI (SN12C renal) was > 100 µM, the TGI (SF-268 CNS) was > 100 µM and the TGI (OVCAR-4 ovarian) was > 100 µM. For the same molecule, the TGI (KM12 colon) was 82.1 µM and the TGI (PC-3 prostate) was > 100 µM.
For `CCOC(=O)CC1c2ccc(O)cc2OC(=O)C1c1ccc(N)cc1` (configuration not stated), the TGI (SF-295 CNS) was > 100 µM, the TGI (SK-OV-3 ovarian) was > 100 µM and the TGI (MOLT-4 leukemia) was > 100 µM. For the same molecule, the TGI (M14 melanoma) was > 100 µM, the TGI (ACHN renal) was > 100 µM and the TGI (SNB-19 CNS) was > 100 µM. The TGI (HCC-2998 colon) was > 100 µM, the TGI (HCT-116 colon) was > 100 µM and the TGI (OVCAR-8 ovarian) was > 100 µM. The TGI (COLO 205 colon) was > 100 µM, the TGI (OVCAR-3 ovarian) was > 100 µM and the TGI (RXF 393 renal) was > 100 µM. The TGI (UO-31 renal) was > 100 µM, the TGI (SK-MEL-5 melanoma) was > 100 µM and the TGI (NCI/ADR-RES ovarian) was > 100 µM. The TGI (UACC-257 melanoma) was > 100 µM, the TGI (NCI-H460 lung) was > 100 µM and the TGI (BT-549 breast) was > 100 µM. The TGI (A549 NSCLC) was > 100 µM, the TGI (DU-145 prostate) was > 100 µM and the TGI (IGROV1 ovarian) was > 100 µM. The TGI (CCRF-CEM leukemia) was > 100 µM, the TGI (TK-10 renal) was > 100 µM and the TGI (HS 578T breast) was > 100 µM. The TGI (SK-MEL-28 melanoma) was > 100 µM, the TGI (SW-620 colon) was > 100 µM and the TGI (HOP-62 NSCLC) was > 100 µM. For the same molecule, the TGI (MCF7 breast) was > 100 µM, the TGI (SK-MEL-2 melanoma) was > 100 µM and the TGI (786-0 renal) was > 100 µM. The TGI (NCI-H522 lung) was > 100 µM, the TGI (MDA-MB-435) was > 100 µM and the TGI (NCI-H226 lung) was > 100 µM. For the same molecule, the TGI (SF-539 CNS) was > 100 µM, the TGI (HCT-15 colon) was > 100 µM and the TGI (RPMI-8226 leukemia) was > 100 µM. The TGI (NCI-H23 lung) was > 100 µM, the TGI (MALME-3M melanoma) was > 100 µM and the TGI (MDA-MB-231 breast) was > 100 µM. The TGI (SNB-75 CNS) was > 100 µM, the TGI (HT29 colon) was > 100 µM and the TGI (U251 CNS) was > 100 µM. The TGI (A498 renal) was > 100 µM, the TGI (CAKI-1 renal) was > 100 µM and the TGI (MDA-N) was > 100 µM. For the same molecule, the TGI (EKVX NSCLC) was > 100 µM, the TGI (K-562 leukemia) was > 100 µM and the TGI (LOX IMVI melanoma) was > 100 µM. The TGI (SN12C renal) was > 100 µM, the TGI (SR leukemia) was > 100 µM and the TGI (UACC-62 melanoma) was > 100 µM. The TGI (SF-268 CNS) was > 100 µM, the TGI (KM12 colon) was > 100 µM and the TGI (PC-3 prostate) was > 100 µM.
